Assay [1] has as its system RKO colon adenocarcinoma cells (RKOp27) arrested by the expression of ectopic p27Kip1. In words: Alamar Blue cell viability assay on RKOp27 cells arrested by Ponasterone A-induced p27Kip1 expression (cell cycle specific mode of action). It is filed as cell-based. As to conditions: Homo sapiens, RKOp27 subclone induced with 10 μM Ponasterone A, 72 hours incubation, read-out: IC50 RKO p27 induced (arrested). The method, then: To determine the cell cycle specific mode of action, subclones of RKO colon adenocarcinoma cells (RKOp27 or RKOp21 as described by Schmidt et al. in Oncogene 19, 2423-2429; 2000) are seeded into 96 well flat bottom plates at a density of 16000 cells per well in a volume of 50 μl per well in DMEM growth medium with 10% FCS containing 10 μM Ponasterone A. 24 hours after seeding the 50 μl each of the compound dilutions in DMEM medium are added into each well of the 96 Well plate. Each compound dilution is tested as quadruplicates. Wells containing untreated control cells are filled with 50 μl DMEM medium containing 1% DMSO. The cells are then incubated with the substances for 72 hours at 37° C. in a humidified atmosphere containing 5% carbon dioxide. To determine the viability of the cells, 10 μl of an Alamar Blue solution (Biosource) are added and the fluorescence was measured at an extinction of 544 nm and an emission of 590 nm. For the calculation of the cell viability the emission value from untreated cells is set as 100% viability and the emission rates of treated cells are set in relation to the values of untreated cells. Viabilities are expressed as % values. Viability is compared of proliferating cells grown in the absence of the inducer Ponasterone A, versus viability of cells arrested by the expression of ectopic p27Kip1 induced by Ponasterone A.
Background: Resazurin is reduced to fluorescent resorufin, in cell work by metabolically active cells.

Assay [2] relates to RKO (RKOp27) human colon adenocarcinoma cells. In words: Alamar Blue cell viability assay, anti-proliferative/cytotoxic activity on proliferating (uninduced) RKOp27 cells. The settings on record: RKOp27 subclone without inducer, 72 hours incubation, read-out: IC50 RKO p27 uninduced (proliferating). It is filed as cell-based. The method, then: The anti-proliferative/cytotoxic activity of the compounds described herein, can be tested on subclones of RKO (RKOp27) human colon adenocarcinoma cells (Schmidt et al., Oncogene 19, 2423-2429; 2000) using the Alamar Blue cell viability assay (described in O'Brien et al. Eur J Biochem 267, 5421-5426, 2000). The compounds are dissolved as 20 mM solutions in dimethylsulfoxide (DMSO) and subsequently diluted in semi-logarithmic steps. DMSO dilutions are further diluted 1:100 into Dulbecco's modified Eagle's medium (DMEM) containing 10% fetal calf serum to a final concentration twice as much as the final concentration in the test. RKO subclones are seeded into 96 well flat bottom plates at a density of 4000 cells per well in a volume of 50 μl per well. 24 hours after seeding the 50 μl each of the compound dilutions in DMEM medium are added into each well of the 96 Well plate. Each compound dilution is tested as quadruplicates. Wells containing untreated control cells are filled with 50 μl DMEM medium containing 1% DMSO. The cells are then incubated with the substances for 72 hours at 37° C. in a humidified atmosphere containing 5% carbon dioxide. To determine the viability of the cells, 10 μl of an Alamar Blue solution (Biosource) are added and the fluorescence is measured at an extinction of 544 nm and an emission of 590 nm. For the calculation of the cell viability the emission value from untreated cells is set as 100% viability and the emission rates of treated cells are set in relation to the values of untreated cells. Viabilities are expressed as % values.
The corresponding IC50 values of the compounds for anti-proliferative/cytotoxic activity are determined from the concentration-effect curves.
Representative IC50 values for anti-proliferation/cytotoxicity determined in the mentioned assay follow from the following table A, in which the numbers of the compound correspond to the numbers of the examples.

One may read the IC50 as the concentration needed to halve the response being measured.

Molecules are shown by their SMILES.

Take `N#Cc1c(NC(=O)CCc2ccccc2)sc2c1CCN(C(=O)OCCn1ccnc1)C2` [Example 54, 3-Cyano-2-(3-phenyl-propanoylamino)-4,7-dihydro-5H-thieno[2,3-c]pyridine-6-carboxylic acid 2-imidazol-1-yl-ethyl ester]: the results for the IC50 in assay [1] and in assay [2] were > 100000 nM and ≤ 300 nM, respectively.
Turning to `CCOC(=O)N1CCc2c(sc(NC(=O)CC(C)c3cccnc3)c2C#N)C1` (racemic) [Example 49, 3-Cyano-2-((RS)-3-pyridin-3-yl-butanoylamino)-4,7-dihydro-5H-thieno[2,3-c]pyridine-6-carboxylic acid ethyl ester], the IC50 in assay [1] is > 100000 nM; in assay [2] it was 300 to 2000 nM.
As to `CCOC(=O)N1CCc2c(sc(NC(=O)CCc3cccc4c3OC(F)(F)O4)c2C#N)C1` [Example 33, 3-Cyano-2-[3-(2,2-difluoro-benzo[1,3]dioxol-4-yl)-propanoylamino]-4,7-dihydro-5H-thieno[2,3-c]pyridine-6-carboxylic acid ethyl ester], the concentration for half-maximal inhibition (IC50) in assay [1] is > 100000 nM; in assay [2], 300 to 2000 nM.
The matching figures for `CC(CC(=O)Nc1sc2c(c1C#N)CCN(C(=O)OCCc1cccnc1)C2)c1ccccc1` (racemic) [Example 92, 3-Cyano-2-((RS)-3-phenyl-butanoylamino)-4,7-dihydro-5H-thieno[2,3-c]pyridine-6-carboxylic acid 2-pyridin-3-yl-ethyl ester]: > 100000 nM and ≤ 300 nM.
In the case of `CC(CC(=O)Nc1sc2c(c1C#N)CCN(C(=O)OCCc1ccncc1)C2)c1cccnc1` (racemic) [Example 76, 3-Cyano-2-((RS)-3-pyridin-3-yl-butanoylamino)-4,7-dihydro-5H-thieno[2,3-c]pyridine-6-carboxylic acid 2-pyridin-4-yl-ethyl ester], the figures for the IC50 in assay [1] and in assay [2] were ≥ 40000 nM and 300 to 2000 nM, respectively.
`N#Cc1c(NC(=O)CCc2ccco2)sc2c1CCN(C(=O)OCCO)C2` [Example 55, 3-Cyano-2-(3-furan-2-yl-propanoylamino)-4,7-dihydro-5H-thieno[2,3-c]pyridine-6-carboxylic acid 2-hydroxy-ethyl ester]: the IC50 in assay [1] is > 100000 nM; in assay [2], ≤ 300 nM.
As to `N#Cc1c(NC(=O)CCc2ccccc2)sc2c1CCN(C(=O)OCc1cccnc1)C2` [Example 28, 3-Cyano-2-(3-phenyl-propanoylamino)-4,7-dihydro-5H-thieno[2,3-c]pyridine-6-carboxylic acid pyridin-3-ylmethyl ester], the IC50 in assay [1] was > 100000 nM; in assay [2], ≤ 300 nM.
On to `CC(CC(=O)Nc1sc2c(c1C#N)CCN(C(=O)OCCn1ccnc1)C2)c1ccccc1` (racemic) [Example 96, 3-Cyano-2-((RS)-3-phenyl-butanoylamino)-4,7-dihydro-5H-thieno[2,3-c]pyridine-6-carboxylic acid 2-imidazol-1-yl-ethyl ester], for which the IC50 was > 100000 nM in assay [1] and ≤ 300 nM in assay [2].
With `CCOC(=O)N1CCc2c(sc(NC(=O)CCc3cncnc3)c2C#N)C1` [Example 35, 3-Cyano-2-(3-pyrimidin-5-yl-propanoylamino)-4,7-dihydro-5H-thieno[2,3-c]pyridine-6-carboxylic acid ethyl ester], the IC50 is ≥ 40000 nM in assay [1] and 300 to 2000 nM in assay [2].
On to `CCOC(=O)N1CCc2c(sc(NC(=O)CCc3ccco3)c2C#N)C1` [Example 5, 3-Cyano-2-(3-furan-2-yl-propanoylamino)-4,7-dihydro-5H-thieno[2,3-c]pyridine-6-carboxylic acid ethyl ester], for which the IC50 was > 100000 nM in assay [1] and ≤ 300 nM in assay [2].
As for `CCOC(=O)N1CCc2c(sc(NC(=O)CCc3ccc(Cl)cc3)c2C#N)C1` [Example 17, 2-[3-(4-Chloro-phenyl)-propanoylamino]-3-cyano-4,7-dihydro-5H-thieno[2,3-c]pyridine-6-carboxylic acid ethyl ester], the IC50 in assay [1] was > 100000 nM; in assay [2], ≤ 300 nM.

For the origin of these results see US7714135B2, “Tetrahydropyridothiophenes for the treatment of proliferative diseases such as cancer” (4SC AG, priority 2005, dated 2010).
